Consider 1 molecule from ChEMBL document CHEMBL5325471, “Identification of new modulator of DNA repairing pathways based on natural product (±)-peharmaline A” (Bioorg Med Chem, 2023).

The structures appear in SMILES notation.

In one data set the test system is SGC-7901. Description: Cytotoxicity against human SGC-7901 cells. Type of data set: functional, cell-based.
For the next data set, the system named is HL-60. Description: Cytotoxicity against human HL-60 cells. Type of data set: functional, cell-based.
The subject of another data set is HCT-116. Briefly: Antiproliferative activity against human HCT-116 cells assessed as cell growth inhibition incubated for 44 hrs by MTT assay. It is filed as functional, cell-based. To be noted: HCT-116, 44 h.
Data set [1] deals with PC-3. Briefly: Antiproliferative activity against human PC-3 cells assessed as cell growth inhibition incubated for 44 hrs by MTT assay. It is filed as functional, cell-based. Conditions: PC-3, 44 h.
The next data set relates to MCF7. Description: Antiproliferative activity against human MCF7 cells assessed as cell growth inhibition incubated for 44 hrs by MTT assay. It is filed as functional, cell-based. To be noted: MCF7, 44 h.
Data set [2] deals with PC-3. Briefly: Cytotoxicity against human PC-3 cells. Type of data set: functional, cell-based.
For the next data set, the system named is A549. Briefly: Antiproliferative activity against human A549 cells assessed as cell growth inhibition incubated for 44 hrs by MTT assay. It is filed as functional, cell-based. To be noted: A549, 44 h. In general terms: Tetrazolium assays rely on reduction of a dye to a coloured formazan, in cell work by metabolically active cells.
Data set [3] in a line: Cytotoxicity against human fR2 cells assessed as cell growth inhibition incubated for 44 hrs by MTT assay. Type of data set: toxicity, cell-based.

Consider `COC(=O)[C@]1([C@H]2CCn3c2nc2ccccc2c3=O)NCCc2c1[nH]c1cc(OC)ccc21` (racemic), for which the 50% inhibitory concentration (IC50) – broadly, the concentration at which inhibition is half-maximal – with SGC-7901 is 25.4 µM; in the data set with HL-60, 9.2 µM; with HCT-116, 15.4 µM; with PC-3 [1], 12.2 µM; in the data set on MCF7 it was 6.22 µM; in the data set on PC-3 [2] it was 21.6 µM. Besides, the IC50 in the data set with A549 stood at 5.24 µM. The IC50 at 44 h in data set [3] amounted to 17.9 µM.
